{"source": "patent US10464925B2", "about": "“Methods to induce targeted protein degradation through bifunctional molecules” (Dana-Farber Cancer Institute, Inc., priority 2015, dated 2019)", "key": {"[1]": {"tested_on": "IKZF1 adjoined to nanoluciferase (Nluc)", "experiment": "IKZF1 Dual Luciferase Assay", "format": "cell-based", "parameters": "Nluc/Fluc IKZF1 Max Degradation: unit: %", "settings": "293 FT cells, 4 hours; for IC50: read-out: Nluc/Fluc IKZF1 IC50"}, "CRBN-DDB1": {"molecular_target": "T1, CRBN-DDB1 (Homo sapiens, UniProt Q96SW2)", "T1 construct": "6xHis (given for the complex); made in house; host or cells: Sf9 cells (Invitrogen), pFastBac", "experiment": "CRBN-DDB1 Ligand-Displacement AlphaScreen Assay (thalidomide competition);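 also: streptavidin donor and nickel chelate acceptor bead proximity signal after 30 min incubation, normalized with no-protein background as 0% and DMSO wells as 100% activity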", "format": "binding", "settings": "read-out: CRBN alpha IC50"}, "BRDT": {"molecular_target": "BRDT (Homo sapiens, UniProt Q58F21)", "experiment": "BRDT IC50 (Table 4)", "format": "binding", "settings": "read-out: IC50 (nM) BRDT"}, "BRD4": {"molecular_target": "BRD4 (Homo sapiens, UniProt O60885)", "experiment": "BRD4 Cell Western (BRD4 levels in 293T cells, LiCOR)", "format": "cell-based", "parameters": "BRD4 levels in the cells after the dBET treatment; endogenous in cells", "settings": "HEK-293T; read-out: BRD4 max degradation(%) Cell Western"}, "[2]": {"molecular_target": "T2, BRD4 adjoined to nanoluciferase (Nluc) (Homo sapiens, UniProt O60885+Q96SW2)", "T2 construct": "expressed in transfected cells", "experiment": "BRD4 Dual Luciferase Assay;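 also: transduced reporter cells exposed to compound for 4 h, then Nluc and Fluc luminescence read, each normalized to DMSO controls and expressed as Nluc/Fluc ratio per well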", "format": "cell-based"}}, "note": "Read-outs that look alike come from different tables or passages of the source.", "data": [{"molecule": "O=C1CCC(N2C(=O)c3cccc(F)c3C2=O)C(=O)N1", "note": "[Compound D-14, 2-(2,6-dioxopiperidin-3-yl)-4-fluoroisoindoline-1,3-dione]", "values": [{"measurement": "IC50", "setting": "[1]", "result": "> 50000", "unit": "nM"}, {"measurement": "IC50", "setting": "CRBN-DDB1", "result": 608, "unit": "nM"}]}, {"molecule": "O=C1CCC(N2C(=O)c3ccc(C(=O)NCc4ccccc4)cc3C2=O)C(=O)N1", "note": "[Compound D-15, N-benzyl-2-(2,6-dioxopiperidin-3-yl)-1,3-dioxoisoindoline-5-carboxamide]", "values": [{"measurement": "IC50", "setting": "[1]", "result": "> 50000", "unit": "nM"}, {"measurement": "IC50", "setting": "CRBN-DDB1", "result": 619, "unit": "nM"}]}, {"molecule": "O=C1CCC(N2C(=O)c3cccc(NCc4ccccc4)c3C2=O)C(=O)N1", "note": "[Compound D-16, 4-(benzylamino)-2-(2,6-dioxopiperidin-3-yl)isoindoline-1,3-dione]", "values": [{"measurement": "Nluc/Fluc IKZF1 Max Degradation", "setting": "[1]", "result": 67.23}, {"measurement": "IC50", "setting": "CRBN-DDB1", "result": 71.4, "unit": "nM"}]}, {"molecule": "CC(C)Nc1cccc2c1C(=O)N(C1CCC(=O)NC1=O)C2=O", "note": "[Compound D-18, 2-(2,6-dioxopiperidin-3-yl)-4-(isopropylamino)isoindoline-1,3-dione]", "values": [{"measurement": "Nluc/Fluc IKZF1 Max Degradation", "setting": "[1]", "result": 41.1}, {"measurement": "IC50", "setting": "CRBN-DDB1", "result": 25.3, "unit": "nM"}]}, {"molecule": "Cc1cccc2c1C(=O)N(C1CCC(=O)NC1=O)C2=O", "note": "[Compound D-19, 2-(2,6-dioxopiperidin-3-yl)-4-methylisoindoline-1,3-dione]", "values": [{"measurement": "Nluc/Fluc IKZF1 Max Degradation", "setting": "[1]", "result": 63.37}, {"measurement": "IC50", "setting": "CRBN-DDB1", "result": 147, "unit": "nM"}]}, {"molecule": "CCN(CC)c1cccc2c1C(=O)N(C1CCC(=O)NC1=O)C2=O", "note": "[Compound D-21, 4-(diethylamino)-2-(2,6-dioxopiperidin-3-yl)isoindoline-1,3-dione]", "values": [{"measurement": "Nluc/Fluc IKZF1 Max Degradation", "setting": "[1]", "result": 17.98}, {"measurement": "IC50", "setting": "CRBN-DDB1", "result": 164, "unit": "nM"}]}, {"molecule": "O=C1CCC(N2C(=O)c3cccc(CNC(=O)C4CC4)c3C2=O)C(=O)N1", "note": "[Compound D-22, N-((2-(2,6-dioxopiperidin-3-yl)-1,3-dioxoisoindolin-4-yl)methyl)cyclopropanecarboxamide]", "values": [{"measurement": "Nluc/Fluc IKZF1 Max Degradation", "setting": "[1]", "result": 52.96}, {"measurement": "IC50", "setting": "CRBN-DDB1", "result": 375, "unit": "nM"}]}, {"molecule": "CC(=O)NCc1cccc2c1C(=O)N(C1CCC(=O)NC1=O)C2=O", "note": "[Compound D-23, N-((2-(2,6-dioxopiperidin-3-yl)-1,3-dioxoisoindolin-4-yl)methyl)acetamide]", "values": [{"measurement": "Nluc/Fluc IKZF1 Max Degradation", "setting": "[1]", "result": 59.03}, {"measurement": "IC50", "setting": "CRBN-DDB1", "result": 646, "unit": "nM"}]}, {"molecule": "O=C1CCC(N2C(=O)c3ccc(F)cc3C2=O)C(=O)N1", "note": "[Compound D-24, 2-(2,6-dioxopiperidin-3-yl)-5-fluoroisoindoline-1,3-dione]", "values": [{"measurement": "IC50", "setting": "[1]", "result": "> 50000", "unit": "nM"}, {"measurement": "IC50", "setting": "CRBN-DDB1", "result": 493, "unit": "nM"}]}, {"molecule": "O=C1CCC(N2C(=O)c3ccc(NCc4ccccc4)cc3C2=O)C(=O)N1", "note": "[Compound D-25, 5-(benzylamino)-2-(2,6-dioxopiperidin-3-yl)isoindoline-1,3-dione]", "values": [{"measurement": "IC50", "setting": "[1]", "result": "> 50000", "unit": "nM"}, {"measurement": "IC50", "setting": "CRBN-DDB1", "result": 58.9, "unit": "nM"}]}, {"molecule": "CC(C)Nc1ccc2c(c1)C(=O)N(C1CCC(=O)NC1=O)C2=O", "note": "[Compound D-26, 2-(2,6-dioxopiperidin-3-yl)-5-(isopropylamino)isoindoline-1,3-dione]", "values": [{"measurement": "IC50", "setting": "[1]", "result": "> 50000", "unit": "nM"}, {"measurement": "IC50", "setting": "CRBN-DDB1", "result": 113, "unit": "nM"}]}, {"molecule": "CCN(CC)c1ccc2c(c1)C(=O)N(C1CCC(=O)NC1=O)C2=O", "note": "[Compound D-27, 5-(diethylamino)-2-(2,6-dioxopiperidin-3-yl)isoindoline-1,3-dione]", "values": [{"measurement": "IC50", "setting": "[1]", "result": "> 50000", "unit": "nM"}, {"measurement": "IC50", "setting": "CRBN-DDB1", "result": 200, "unit": "nM"}]}, {"molecule": "Cc1sc2c(c1C)C(c1ccc(Cl)cc1)=N[C@@H](CC(=O)NCCNC(=O)COc1cccc3c1C(=O)N(C1CCC(=O)NC1=O)C3=O)c1nnc(C)n1-2", "note": "(stereo partly drawn) [dBET3]", "values": [{"measurement": "IC50", "setting": "BRDT", "result": 88, "unit": "nM"}, {"measurement": "Dmax", "setting": "BRD4", "result": 31.6, "unit": "%"}, {"measurement": "Conc@Emax", "setting": "[2]", "result": 0.5, "unit": "µM"}, {"measurement": "Dmax", "setting": "[2]; 4 hours, read-out: max degradation (dual luc)", "result": 12.7, "unit": "%"}, {"measurement": "Emax", "setting": "[2]; BRD4 remaining at Emax, read-out: BRD4− Emax (percent remaining)", "result": 84, "unit": "%"}, {"measurement": "Dmax", "setting": "[2]; read-out: BRD4 max degradation(%) Dual Luciferase", "result": 13, "unit": "%"}]}]}
